ChEMBL document CHEMBL3091388, “New cytotoxic benzosuberene analogs. Synthesis, molecular modeling and biological evaluation” (Bioorg Med Chem Lett, 2013)

Assays:
NCI-N87 = assay: Cytotoxicity against human NCI-N87 cells assessed as cell viability after 4 days by MTS assay; format: functional, cell-based; details: NCI-N87, 96 h
CYP1A2 = biological target: T1, CYP1A2 (Homo sapiens, UniProt P05177); assay: Inhibition of CYP1A2 (unknown origin) at 3 uM; format: ADME
T1 sequence (P05177 whole entry): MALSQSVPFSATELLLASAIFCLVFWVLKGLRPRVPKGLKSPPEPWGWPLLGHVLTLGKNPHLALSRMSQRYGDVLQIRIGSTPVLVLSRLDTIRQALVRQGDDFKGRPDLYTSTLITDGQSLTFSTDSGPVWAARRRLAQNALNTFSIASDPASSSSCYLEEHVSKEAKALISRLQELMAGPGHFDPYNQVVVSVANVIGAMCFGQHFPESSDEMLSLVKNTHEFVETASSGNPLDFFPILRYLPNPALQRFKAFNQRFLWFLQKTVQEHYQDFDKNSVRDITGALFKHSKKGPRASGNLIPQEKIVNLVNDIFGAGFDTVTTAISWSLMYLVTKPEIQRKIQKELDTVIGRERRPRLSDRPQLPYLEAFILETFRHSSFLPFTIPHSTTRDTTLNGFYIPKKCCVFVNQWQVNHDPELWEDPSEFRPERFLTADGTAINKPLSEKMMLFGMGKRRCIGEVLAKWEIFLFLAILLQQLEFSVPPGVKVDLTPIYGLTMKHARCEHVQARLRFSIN

CYP2C9 = CYP2C9 (Homo sapiens, UniProt P11712); assay: Inhibition of CYP2C9 (unknown origin) at 3 uM; format: ADME
CYP2C9, sequence (P11712 whole entry): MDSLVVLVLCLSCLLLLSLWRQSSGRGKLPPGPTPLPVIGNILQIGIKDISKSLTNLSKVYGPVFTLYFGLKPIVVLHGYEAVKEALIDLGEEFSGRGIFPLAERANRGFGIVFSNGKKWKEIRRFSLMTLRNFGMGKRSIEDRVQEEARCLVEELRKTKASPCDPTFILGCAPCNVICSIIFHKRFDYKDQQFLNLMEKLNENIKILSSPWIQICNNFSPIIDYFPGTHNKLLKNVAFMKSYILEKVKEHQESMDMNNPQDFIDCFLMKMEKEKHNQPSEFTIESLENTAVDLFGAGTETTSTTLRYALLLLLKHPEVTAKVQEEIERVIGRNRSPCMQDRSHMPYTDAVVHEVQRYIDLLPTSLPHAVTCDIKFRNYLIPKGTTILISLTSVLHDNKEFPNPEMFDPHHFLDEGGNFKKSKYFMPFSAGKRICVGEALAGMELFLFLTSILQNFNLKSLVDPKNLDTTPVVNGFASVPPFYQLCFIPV

[1] = Apparent intrinsic clearance in human liver microsomes at 1 uM; format: ADME; details: read-out: CLH(app)
CYP2C8 = biological target: T2, CYP2C8 (Homo sapiens, UniProt P10632); assay: Inhibition of CYP2C8 (unknown origin) at 3 uM; format: ADME
T2 sequence (P10632 whole entry): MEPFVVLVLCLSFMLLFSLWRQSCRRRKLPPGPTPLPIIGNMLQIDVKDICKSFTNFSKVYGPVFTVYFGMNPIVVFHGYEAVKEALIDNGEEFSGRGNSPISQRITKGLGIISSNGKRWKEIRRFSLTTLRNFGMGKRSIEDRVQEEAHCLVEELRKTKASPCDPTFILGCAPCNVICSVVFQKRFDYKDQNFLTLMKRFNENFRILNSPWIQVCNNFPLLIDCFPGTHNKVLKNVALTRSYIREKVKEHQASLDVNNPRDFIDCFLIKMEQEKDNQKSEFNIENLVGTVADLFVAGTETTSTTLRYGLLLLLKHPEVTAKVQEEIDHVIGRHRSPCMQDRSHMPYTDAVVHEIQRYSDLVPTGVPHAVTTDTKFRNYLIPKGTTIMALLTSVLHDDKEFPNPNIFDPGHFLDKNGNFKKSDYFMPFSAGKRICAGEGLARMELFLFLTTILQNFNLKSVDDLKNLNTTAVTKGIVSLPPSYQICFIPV

BT-474 = assay: Cytotoxicity against human BT474 cells assessed as cell viability after 4 days by MTS assay; format: functional, cell-based; details: BT-474, 96 h
MDA-MB-468 = assay: Cytotoxicity against human MDA-MB-468 cells assessed as cell viability after 4 days by MTS assay; format: functional, cell-based; details: MDA-MB-468, 96 h
HUVEC = assay: Cytotoxicity against HUVEC assessed as cell viability after 4 days by MTS assay; format: cell-based; details: Homo sapiens, 96 h
CYP2D6 = CYP2D6 (Homo sapiens, UniProt P10635); assay: Inhibition of CYP2D6 (unknown origin) at 3 uM; format: ADME
CYP2D6, sequence (P10635 whole entry): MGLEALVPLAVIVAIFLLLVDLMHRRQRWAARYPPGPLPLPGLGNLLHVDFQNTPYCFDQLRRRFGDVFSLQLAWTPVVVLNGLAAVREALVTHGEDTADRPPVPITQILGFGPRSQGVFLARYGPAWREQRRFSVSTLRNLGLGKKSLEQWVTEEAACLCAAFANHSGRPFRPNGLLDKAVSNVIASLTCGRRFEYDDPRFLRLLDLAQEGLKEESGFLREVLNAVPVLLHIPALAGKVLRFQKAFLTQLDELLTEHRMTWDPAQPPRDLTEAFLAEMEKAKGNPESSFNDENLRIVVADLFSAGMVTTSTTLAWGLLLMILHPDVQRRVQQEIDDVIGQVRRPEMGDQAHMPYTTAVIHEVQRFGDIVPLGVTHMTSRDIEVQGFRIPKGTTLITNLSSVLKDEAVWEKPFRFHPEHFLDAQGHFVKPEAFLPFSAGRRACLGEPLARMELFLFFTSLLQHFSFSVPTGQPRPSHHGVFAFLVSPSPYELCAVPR

CYP3A4 = CYP3A4 (Homo sapiens, UniProt P08684); assay: Inhibition of CYP3A4 (unknown origin) at 3 uM; format: ADME
CYP3A4, sequence (P08684 whole entry): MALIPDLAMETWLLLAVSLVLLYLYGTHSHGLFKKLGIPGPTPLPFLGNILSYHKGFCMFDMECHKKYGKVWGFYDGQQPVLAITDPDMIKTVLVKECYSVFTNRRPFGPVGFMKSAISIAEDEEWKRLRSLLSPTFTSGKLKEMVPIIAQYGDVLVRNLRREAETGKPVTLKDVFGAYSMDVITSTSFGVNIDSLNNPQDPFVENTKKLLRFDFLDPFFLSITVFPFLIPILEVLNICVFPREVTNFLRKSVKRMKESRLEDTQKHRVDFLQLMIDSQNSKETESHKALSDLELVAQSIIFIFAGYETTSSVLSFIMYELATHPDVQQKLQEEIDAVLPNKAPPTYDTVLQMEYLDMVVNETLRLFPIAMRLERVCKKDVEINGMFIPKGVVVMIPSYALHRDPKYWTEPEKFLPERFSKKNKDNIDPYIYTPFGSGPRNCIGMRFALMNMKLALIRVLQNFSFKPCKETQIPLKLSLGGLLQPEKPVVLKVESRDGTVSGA

[2] = Apparent permeability from apical to basolateral side in RRCK cells; format: ADME, cell-based, Canis lupus familiaris, MDCKII-LE; details: dog, MDCK
MDR1 (ABCB1, P-gp) = MDR1 (ABCB1, P-gp) (Homo sapiens, UniProt P08183); assay: Activity at MDR1 (unknown origin) expressed in MDCK cells assessed as efflux ratio of permeability at 2 uM; format: ADME, cell-based
MDR1 (ABCB1, P-gp), sequence (P08183 whole entry): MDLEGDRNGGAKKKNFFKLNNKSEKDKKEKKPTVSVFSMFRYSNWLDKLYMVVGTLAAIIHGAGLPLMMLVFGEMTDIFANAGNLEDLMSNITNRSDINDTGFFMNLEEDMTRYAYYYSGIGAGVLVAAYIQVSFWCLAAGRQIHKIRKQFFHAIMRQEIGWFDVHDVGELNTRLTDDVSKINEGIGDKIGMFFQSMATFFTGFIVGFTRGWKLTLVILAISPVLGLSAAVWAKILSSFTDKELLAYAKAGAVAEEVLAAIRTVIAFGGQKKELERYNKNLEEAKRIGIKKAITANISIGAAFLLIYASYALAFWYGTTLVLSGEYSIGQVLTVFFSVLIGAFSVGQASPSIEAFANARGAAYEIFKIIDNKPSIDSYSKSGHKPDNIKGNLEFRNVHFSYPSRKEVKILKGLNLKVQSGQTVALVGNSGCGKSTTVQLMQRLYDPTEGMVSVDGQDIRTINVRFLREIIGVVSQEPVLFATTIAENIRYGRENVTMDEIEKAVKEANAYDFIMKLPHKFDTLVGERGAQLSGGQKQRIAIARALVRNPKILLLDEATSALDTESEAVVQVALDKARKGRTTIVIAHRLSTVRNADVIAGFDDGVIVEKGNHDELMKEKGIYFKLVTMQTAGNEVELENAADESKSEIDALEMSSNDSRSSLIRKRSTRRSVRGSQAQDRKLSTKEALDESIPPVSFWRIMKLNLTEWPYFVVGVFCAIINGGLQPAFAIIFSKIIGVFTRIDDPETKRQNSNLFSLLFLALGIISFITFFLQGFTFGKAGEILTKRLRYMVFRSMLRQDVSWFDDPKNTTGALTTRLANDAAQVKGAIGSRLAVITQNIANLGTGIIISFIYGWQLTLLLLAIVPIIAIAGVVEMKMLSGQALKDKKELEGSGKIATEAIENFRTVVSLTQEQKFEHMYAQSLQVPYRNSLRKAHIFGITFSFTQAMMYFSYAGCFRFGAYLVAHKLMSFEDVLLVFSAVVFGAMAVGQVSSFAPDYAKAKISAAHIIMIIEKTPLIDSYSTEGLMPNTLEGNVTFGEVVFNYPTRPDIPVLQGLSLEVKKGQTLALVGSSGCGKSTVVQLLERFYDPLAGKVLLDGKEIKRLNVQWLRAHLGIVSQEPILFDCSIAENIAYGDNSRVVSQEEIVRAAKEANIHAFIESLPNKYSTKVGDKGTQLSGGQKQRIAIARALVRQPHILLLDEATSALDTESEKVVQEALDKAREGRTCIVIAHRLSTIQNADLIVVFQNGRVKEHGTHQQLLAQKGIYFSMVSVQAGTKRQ

| SMILES | IC50 (NCI-N87) [nM] | inhibition at 3 µM (CYP1A2) [%] | inhibition at 3 µM (CYP2C9) [%] | microsomal CLint at 1 µM [1] [µL/min/mg] | inhibition at 3 µM (CYP2C8) [%] | IC50 (BT-474) [nM] | IC50 (MDA-MB-468) [nM] | IC50 (HUVEC) [nM] | inhibition at 3 µM (CYP2D6) [%] | inhibition at 3 µM (CYP3A4) [%] | Papp A→B [2] [×10⁻⁶ cm/s] | efflux ratio at 2 µM (MDR1 (ABCB1, P-gp)) |
| --- | --- | --- | --- | --- | --- | --- | --- | --- | --- | --- | --- | --- |
| COc1ccc2c(c1O)CCCC(Cc1ccccc1)=C2c1cc(OC)c(OC)c(OC)c1 | > 1000 | 18.4 | 55.3 | 51.2 | 83.5 | > 1000 | > 1000 | 961 | 26.2 | 33.9 |  |  |
| COc1ccc2c(c1O)CCCC(CC(O)CO)=C2c1cc(OC)c(OC)c(OC)c1 (racemic) | > 1000 | 0 | 6.1 | 66.3 | 35.4 | 990 | 919 | > 1000 | 0 | 3.7 | 16.1 |  |
| COc1ccc2c(c1O)CCCC(CCC(N)=O)=C2c1cc(OC)c(OC)c(OC)c1 | > 1000 |  |  |  |  | > 1000 | > 1000 | 472 |  |  |  |  |
| COc1ccc2c(c1O)CCCC(CCCC#N)=C2c1cc(OC)c(OC)c(OC)c1 | 824 | 1.5 | 23.7 | 239 | 50.5 | 922 | > 1000 | 700 | 0.9 | 25.3 | 16.6 |  |
| COc1ccc2c(c1O)C[C@@H]1C=C[C@@]2(c2cc(OC)c(OC)c(OC)c2)O1 (racemic) | 15.6 |  |  |  |  | 10.9 | 8.9 | 16 |  |  |  |  |
| COc1ccc2c(c1O)CCCC(C)=C2c1cc(OC)c(OC)c(OC)c1 | 203 | 19.7 | 91.5 | 108 | 83.2 | 52.3 | 44.6 | 78.4 | 13.5 | 39.6 | 6.2 | 13.1 |
| CCC1=C(c2cc(OC)c(OC)c(OC)c2)c2ccc(OC)c(O)c2CCC1 | 335 | 11.3 | 75 | 136 | 71.5 | 355 | 304 | 193 | 16 | 31.8 | 3.3 | 1 |
| COc1ccc2c(c1O)CCCC(CCC#N)=C2c1cc(OC)c(OC)c(OC)c1 | 864 | 2.8 | 75.7 | > 320 | 45.3 | 718 | 561 | 644 | 2.8 | 31.4 | 19.6 | 1.2 |
| COc1cc2c(c(OC)c1OC)-c1ccc(OC)c(=O)cc1[C@@H](NC(C)=O)CC2 [COLCHICINE] | 5.4 |  | 11.1 |  | 20.4 | 3.8 | 2.1 | 13.2 | 7.7 |  | 0.76 |  |
| COc1ccc2c(c1O)CCCC=C2c1cc(OC)c(OC)c(OC)c1 | 3.8 | 19 | 89.7 | 54.1 | 77.6 | 2.9 | 1.5 | 4.6 | 6.2 | 16.1 |  |  |
| COc1ccc2c(c1O)CC=CC=C2c1cc(OC)c(OC)c(OC)c1 | 5.6 |  |  |  |  | 5.5 | 4 | 5 |  |  |  |  |
| COc1ccc2c(c1O)CCCC(CCO)=C2c1cc(OC)c(OC)c(OC)c1 | 200 |  |  |  |  | 217 | 115 | 155 |  |  |  |  |
| COc1ccc2c(c1O)CCCC(CCN(C)C)=C2c1cc(OC)c(OC)c(OC)c1 | > 1000 |  |  |  |  | > 1000 | > 1000 | 251 |  |  |  |  |
| COc1ccc(/C=C\c2cc(OC)c(OC)c(OC)c2)cc1O [COMBRETASTATIN A4] | 2.5 |  |  |  |  | 3.9 | 1.1 | 2.5 |  |  |  |  |
